Literature values, collected in US20140107130A1, “Oral Solution Formulations of Aripiprazole” (Antrim Pharmaceuticals, LLC, priority 2012, published 2014).

Assays:
[1] = intramuscular (IM) injectable solution; many water-miscible co-solvent and water-immiscible solvent/co-solvent systems
[2] = room temperature

aqueous solubility [2]: < 1 µg/mL
Compound: O=C1CCc2ccc(OCCCCN3CCN(c4cccc(Cl)c4Cl)CC3)cc2N1 [Aripiprazole]
tissue irritation at the muscular site [1]: unacceptable (moderate to severe) tissue irritation
